Entries after “also recorded” stand apart in the source; their conditions may differ. Like-named read-outs stand apart in the source and are kept apart here.
Legend:
[1] = tested on: bio-printed kidney organoids; test: Quantitative RT-PCR gene expression analysis following drug exposure; assay type: cell-based, human; details: 72 hours
Protocol: (§1) Doxorubicin (Sigma-Aldrich, D1515) stock solution was prepared in DMSO. Amikacin, Tobramycin, Gentamycin, Neomycin, and Streptomycin were all procured through Sigma Aldrich (St. Louis, Mo.) and prepared as a 25 mg/ml solution in APEL media. Dosing for 6-well nephrotoxicity studies was performed by initially diluting doxorubicin DMSO stock in APEL media, and subsequently diluting further with additional media to achieve concentrations ranging from 0.3 to 10 μM. Dosing for 96-well nephrotoxicity evaluation was performed by serial dilution. For Doxorubicin, serial dilution of DMSO stocks was added to APEL media to achieve concentrations ranging from 24 nM to 25 μM. Aminoglycoside stock solutions were diluted serially with APEL media to generate dosing concentrations ranging from 1.5 μg/mL to 25 mg/mL. Drug dosing was initiated after day 21 or day 22 of the differentiation protocol. Dosing was performed by applying the full well volume of APEL medium±test article to the apical basket of a Transwell permeable support (4 mL for 6-well plates, 300 μL for 96-well plates). As media containing test articles was added to the Transwell permeable support, the organoids were fully submerged and exposed to any added compounds as the apical and basolateral compartments equilibrated. Drug-supplemented medium was replaced every other day until designated harvest time point.
Total RNA extraction from kidney organoids following drug exposure was performed using an Rneasy Mini kit (Qiagen, Germany) per manufacturer's instructions. RNA was quantified with spectrophotometry with a NanoDrop 2000 (Thermo Fisher, Carlsbad, Calif.). To analyse gene expression, TaqMan Fast One-Step qPCR Master Mix (Applied Biosystems, Foster City, Calif.), TaqMan Probes for genes of interest (ThermoFisher, Carlsbad, Calif.), and house-keeping gene probes (Applied Biosystems, Foster City, Calif.) were combined in assigned wells with RNA. All qPCR reactions were performed and analysed on a StepOnePlus qRT-PCR system (Applied Biosystems, Foster City, Calif.). All data was normalized to house-keeping gene GAPDH prior to normalizing to control samples.

[2] = tested on: bio-printed kidney organoids; test: Organoid viability assessment by ATP content (CellTiter-Glo / CellTiter-Glo 3D) after drug treatment; details: for IC50: Homo sapiens, 72 h; for Cell viability as measured by cellular ATP content: 96-well format, 72-hour treatment, wide concentration range (1.5 μg/mL to 25 mg/mL)
Protocol: as §1
Kidney organoid viability following drug treatment was assessed by measuring ATP content with CellTiter-Glo or CellTiter-Glo 3D viability assays (Promega, Madison, Wis., USA). In brief, harvested organoids from bio-printed in 6-well plates were individually loaded into Precellys tubes (Bertin Technologies, Bretonneux, France) with CellTiter-Glo buffer and dissociated using a Precellys 24 tissue homogenizer (Bertin Technologies, Bretonneux, France). Homogenized organoids were incubated at room temperature for 10 minutes, then centrifuged at 1000 g for 2 minutes to separate buffer from homogenizing beads. Supernatants were transferred to a white opaque 96-well plate for luminescence measurement on a microplate reader (BMG Labtech, Germany). […] To analyse the ATP content in organoids bio-printed on 96-well plates, all media was aspirated and CellTiter-Glo 3D reagent was added to the apical chamber of Transwell permeable support. The plate was shaken at 400 rpm for 5 minutes at room temperature, and then allowed to sit for 25 minutes prior to luminescent measurement in a white opaque 96-well plate on a microplate reader (BMG Labtech, Germany). Viability analysis was reported as percent of control by normalizing the ATP content of treated organoids relative to control organoids. […]

[3] = tested on: podocytes of the organoid glomeruli; test: Immunofluorescence analysis of bio-printed organoid sections after Doxorubicin treatment; assay type: cell-based, human; details: 10 μM Doxorubicin, 72 hours
Protocol: For paraffin-embedded organoids, deparaffinized sections were antigen retrieved in citrate buffer, pH 6.0 (Diagnostic BioSystems, Pleasonton, CA #K035) then blocked in 5% chick serum diluted in TBS-T (v/v) prior to immunofluorescence. For whole mount organoids, organoid harvest, fixation and blocking, and immunofluorescence of prepared sections and whole organoids was performed as described previously (Vanslambrouck J M, et al. J Am Soc Nephrol 30, 1811-1823 (2019)). Images were obtained as described in Vanslambrouck J M, et al. or using an Andor spinning disk confocal microscope with Nikon 25×1.05NA silicone immersion objective.
Doxorubicin (Sigma-Aldrich, D1515) stock solution was prepared in DMSO. Amikacin, Tobramycin, Gentamycin, Neomycin, and Streptomycin were all procured through Sigma Aldrich (St. Louis, Mo.) and prepared as a 25 mg/ml solution in APEL media. Dosing for 6-well nephrotoxicity studies was performed by initially diluting doxorubicin DMSO stock in APEL media, and subsequently diluting further with additional media to achieve concentrations ranging from 0.3 to 10 μM. Dosing for 96-well nephrotoxicity evaluation was performed by serial dilution. For Doxorubicin, serial dilution of DMSO stocks was added to APEL media to achieve concentrations ranging from 24 nM to 25 μM. […]

[4] = 10 μM Doxorubicin, normalized to GAPDH and control

Row | Compound | Expression of podocyte marker NPHS1 ([1]; 2 μM Doxorubicin) | Expression of podocyte marker PODXL ([1]; 2 μM Doxorubicin) | Expression of proximal tubule gene CUBN ([1]; 2 μM or 10 μM Doxorubicin) | Expression of apoptotic indicator Bcl2-associated X protein (BAX) [1, 4] | Expression of kidney injury molecule KIM1 (HAVCR) [1, 4] | IC50 ([2]; read-out: 6-well IC50 (viability, ATP content)) [µM] | IC50 ([2]; read-out: 96-well IC50 (viability, ATP content)) [µM] | Caspase 3 activation (cleaved caspase 3, apoptosis) in podocytes [3] | MAFB staining within podocytes of organoid glomeruli [3] | Cell viability as measured by cellular ATP content [2]
1 | COc1cccc2c1C(=O)c1c(O)c3c(c(O)c1C2=O)C[C@@](O)(C(=O)CO)C[C@@H]3O[C@H]1C[C@H](N)[C@H](O)[C@H](C)O1 [Doxorubicin] | downregulated | downregulated | only downregulated in response to 10 μM Doxorubicin | upregulation | upregulation | 3.9 ± 1.8 | 3.1 ± 1 | induction of apoptosis; also recorded: specific activation of caspase 3 | podocyte specific loss of MAFB expression; also recorded: loss of MAFB staining | 
2 | Gentamycin |  |  |  |  |  |  |  |  |  | decreased in a concentration-dependent fashion
3 | Neomycin |  |  |  |  |  |  |  |  |  | decreased in a concentration-dependent fashion
